Laboratory results published in the NIST ThermoML archive (doi:10.1021/acs.jced.5b00950).
± gives the expanded uncertainty stated by the source.

Columns and labels:
[1] = refractive index (Na D-line) (dimensionless); details: 298.2 K; 101.33 kPa; Liquid; Standard Abbe refractometry
[2] = 298.2 K; 101.33 kPa; Liquid; Vibrating tube method

Structure (SMILES) | refractive index [1] | mass density [2] [kg/m3]
CCCC(=O)O [butanoic acid] | 1.3964 ± 0.002 | 952.8 ± 2
CC(=O)Oc1ccccc1 [phenyl ethanoate] | 1.5012 ± 0.002 | 1073 ± 2
O [water] | 1.3324 ± 0.002 | 999.9 ± 2
